Measurements reported in PubChem BioAssay (NCI).
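Method: 48-hour compound exposure of cells in 96-well plates, five concentrations, linear interpolation of endpoints. At the GI50, growth is halved. TGI: concentration producing complete growth inhibition.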

Key:
Assay in all cases: NCI tumour cell line growth inhibition, 48 h; in the data active = GI50 below about 0.43 µM; inactive = the rest
[1] = tested on: SK-MEL-5 melanoma
[2] = tested on: SW-620 colon
[3] = tested on: KM12 colon
[4] = tested on: COLO 205 colon
[5] = tested on: SNB-78 CNS
[6] = tested on: OVCAR-8 ovarian
[7] = tested on: UO-31 renal
[8] = tested on: SNB-19 CNS
[9] = tested on: IGROV1 ovarian
[10] = tested on: SK-MEL-28 melanoma
[11] = tested on: UACC-62 melanoma
[12] = tested on: M19-MEL melanoma
[13] = tested on: MALME-3M melanoma
[14] = tested on: SF-539 CNS
[15] = tested on: A549 NSCLC
[16] = tested on: OVCAR-3 ovarian
[17] = tested on: DMS 114 small cell lung
[18] = tested on: 786-0 renal
[19] = tested on: EKVX NSCLC
[20] = tested on: HT29 colon
[21] = tested on: LXFL 529 NSCLC
[22] = tested on: UACC-257 melanoma
[23] = tested on: TK-10 renal
[24] = tested on: CCRF-CEM leukemia
[25] = tested on: NCI-H226 lung
[26] = tested on: RPMI-8226 leukemia
[27] = tested on: HCT-116 colon
[28] = tested on: HCC-2998 colon
[29] = tested on: SK-OV-3 ovarian
[30] = tested on: RXF 393 renal
[31] = tested on: HOP-92 NSCLC
[32] = tested on: HOP-62 NSCLC
[33] = tested on: HL-60(TB) leukemia
[34] = tested on: K-562 leukemia
[35] = tested on: M14 melanoma
[36] = tested on: NCI-H23 lung
[37] = tested on: SK-MEL-2 melanoma
[38] = tested on: SF-268 CNS
[39] = tested on: MOLT-4 leukemia
[40] = tested on: SNB-75 CNS
[41] = tested on: OVCAR-4 ovarian
[42] = tested on: DLD-1 colon

COc1cc(N=Nc2ccccc2)cc(/C=N\[N-]C(N)=S)c1[O-].COc1cc(N=Nc2ccccc2)cc(/C=N\[N-]C(N)=S)c1[O-].[Fe+4]
49 µM: TGI [1]
92.6 µM: TGI [24]
inactive: GI50 [1] 13.5 µM | GI50 [2] 50.2 µM | GI50 [3] 23 µM | GI50 [4] 24.3 µM | GI50 [5] > 100 µM | GI50 [6] 29.1 µM | GI50 [7] 30.6 µM | GI50 [8] 44.4 µM | GI50 [9] 29.1 µM | GI50 [10] 24.4 µM | GI50 [12] 16.8 µM | GI50 [13] 59.6 µM | GI50 [14] 43.5 µM | GI50 [15] 46.4 µM | GI50 [16] > 100 µM | GI50 [17] 11.8 µM | GI50 [18] 36.2 µM | GI50 [19] > 100 µM | GI50 [20] 34.9 µM | GI50 [21] 13.7 µM | GI50 [22] > 100 µM | GI50 [23] 48.1 µM | GI50 [24] 15.8 µM | GI50 [25] > 100 µM | GI50 [26] 18.2 µM | GI50 [27] 19.5 µM | GI50 [28] 29.7 µM | GI50 [29] > 100 µM | GI50 [30] 10.9 µM | GI50 [31] > 100 µM | GI50 [32] 23.4 µM | GI50 [33] 12.6 µM | GI50 [34] 16.1 µM | GI50 [35] > 100 µM | GI50 [36] 21.1 µM | GI50 [37] 7.72 µM | GI50 [38] 12.2 µM | GI50 [39] 5.59 µM | GI50 [40] 35.2 µM | GI50 [41] 17.8 µM | GI50 [42] 18.5 µM
50.4 µM: TGI [37]
89.9 µM: TGI [32]
active: GI50 [11] 0.378 µM
75.9 µM: TGI [12]
44.9 µM: TGI [39]
61.3 µM: TGI [4]
> 100 µM: TGI [2] | TGI [3] | TGI [5] | TGI [6] | TGI [7] | TGI [8] | TGI [9] | TGI [10] | TGI [11] | TGI [13] | TGI [14] | TGI [15] | TGI [16] | TGI [18] | TGI [19] | TGI [20] | TGI [21] | TGI [22] | TGI [23] | TGI [25] | TGI [26] | TGI [27] | TGI [28] | TGI [29] | TGI [30] | TGI [31] | TGI [33] | TGI [34] | TGI [35] | TGI [36] | TGI [38] | TGI [40] | TGI [41] | TGI [42]
83.4 µM: TGI [17]
